A short description of this assay: MR relaxivity (T1/T2) on 3.0 Tesla MRI scanner. It is filed as physicochemical. The protocol: Thermogravimetric analysis (TGA) was performed using a Shimadzu TGA-50 (Shimadzu Corp., Kyoto, Japan) equipped with a platinum pan and heated at a rate of 3° C./min under air. A Hitachi 4700 field emission scanning electron microscope (SEM; Hitachi Ltd., Tokyo, Japan) and a JEM 100CX-II transmission electron microscope (JEOL Ltd., Tokyo, Japan) were used to determine particle size and morphology. Scanning electron microscope (SEM) images of the nanoparticles were taken on glass substrate. A Cressington 108 Auto Sputter Coater (Cressington Scientific Instruments, Ltd., Watford, United Kingdom) equipped with an Au/Pd (80/20) target and M™-10 thickness monitor was used to coat the sample with approximately 5 nm of conductive layer before taking SEM images. Gd^3+ ion concentration was measured on a SpectraSpan7 Direct Current Plasma (DCP) Spectrometer (Applied Research Laboratories, La Brea, Calif., United States of America). […] T1 and T2 values were determined on a Bruker 3.0 Tesla full body Magnetic Resonance Imaging (MRI) scanner (Bruker BioSpin MRI GmbH, Ettlingen, Germany). […] Fluorescence microscope images were taken with a Zeiss Axiovert 100 TV Fluorescence Microscope (Carl Zeiss, Inc., Thornwood, N.Y., United States of America) using a FITC filter. T1 values were obtained using the standard inversion-recovery method, whereas T2 values were determined using spin-echo pulse sequences. […]

As to “gadolinium (aminopropyltrimethoxysilyl) diethylenetriamine tetraacetate [Gd—Si-DTTA complex]”, the r1 (molecular complex, for comparison with 1) worked out at 6.8 s^−1 mM^−1 Gd^3+.

Take “bis(aminopropyl-triethoxysilyl)diethylenetriamine pentaacetate gadodiamide [Gd—Si-DTPA complex]”: where the note is “per mM of Gd^3+ (metal ion), 3.0 Tesla scanner, water or 0.1% Xanthan gum”, the “longitudinal relaxivity (r1)” value was 6.2 s⁻¹.

The record behind these values is patent US20090317335A1, “Hybrid Nanomaterials as Multimodal Imaging Contrast Agents” (priority 2006, published 2009).
